From ChEMBL document CHEMBL2331361, “Sulfonylpiperidines as novel, antibacterial inhibitors of Gram-positive thymidylate kinase (TMK)” (Bioorg Med Chem Lett, 2013)
≈ marks a conversion by molar mass, not a printed value.

What was measured:
[1] = Inhibition of Staphylococcus aureus thymidylate kinase
[2] = system: Streptococcus pneumoniae; experiment: Antimicrobial activity against Streptococcus pneumoniae ARC548; format: functional
[3] = system: Staphylococcus aureus; experiment: Antimicrobial activity against methicillin- and quinolone-sensitive Staphylococcus aureus ARC516; format: functional
[4] = Inhibition of Streptococcus pneumoniae thymidylate kinase
[5] = Distribution co-efficient, log D of the compound; settings: octanol/water
[6] = system: Staphylococcus aureus; experiment: Antimicrobial activity against methicillin- and quinolone-resistant Staphylococcus aureus ARC517; format: functional
[7] = system: Streptococcus pyogenes; experiment: Antimicrobial activity against Streptococcus pyogenes ARC838; format: functional
[8] = Inhibition of Escherichia coli thymidylate kinase
[9] = target: Thymidylate kinase (Homo sapiens, UniProt P23919); experiment: Inhibition of human thymidylate kinase
[10] = Cytotoxicity against human A549 cells; format: cell-based; settings: read-out: MIC
[11] = system: Streptococcus agalactiae; experiment: Antimicrobial activity against Streptococcus agalactiae; format: functional
[12] = target: Cytochrome P450 3A4 (Homo sapiens, UniProt P08684); experiment: Inhibition of CYP3A4 (unknown origin); format: ADME
[13] = Intrinsic clearance in rat liver microsomes; format: ADME, Microsome; settings: read-out: CLH
[14] = system: Haemophilus influenzae; experiment: Antimicrobial activity against Haemophilus influenzae ARC446; format: functional
[15] = target: Cytochrome P450 2D6 (Homo sapiens, UniProt P10635); experiment: Inhibition of CYP2D6 (unknown origin); format: ADME
[16] = Intrinsic clearance in rat hepatocytes assessed per million cells; format: ADME, cell-based, Hepatocyte; settings: read-out: CLH
[17] = system: Staphylococcus epidermidis; experiment: Antimicrobial activity against Staphylococcus epidermidis ARC323; format: functional
[18] = Equilibrium solubility of the compound at pH 7.4; format: physicochemical; settings: buffer
[19] = system: Escherichia coli; experiment: Antimicrobial activity against Escherichia coli ARC523; format: functional
[20] = system: Candida albicans; experiment: Antimicrobial activity against Candida albicans; format: functional
[21] = system: Klebsiella pneumoniae; experiment: Antimicrobial activity against Klebsiella pneumoniae ARC1865; format: functional
[22] = system: Staphylococcus haemolyticus; experiment: Antimicrobial activity against Staphylococcus haemolyticus; format: functional
[23] = system: Enterococcus faecalis; experiment: Antimicrobial activity against vancomycin-resistant Enterococcus faecalis ARC1618; format: functional
[24] = system: Enterococcus faecium; experiment: Antimicrobial activity against linezolid-resistant Enterococcus faecium ARC1239; format: functional
[25] = target: Cytochrome P450 2C9 (Homo sapiens, UniProt P11712); experiment: Inhibition of CYP2C9 (unknown origin); format: ADME
[26] = target: Voltage-gated inwardly rectifying potassium channel KCNH2 (Homo sapiens, UniProt Q12809); experiment: Inhibition of human ERG
[27] = target: Cytochrome P450 2C19 (Homo sapiens, UniProt P33261); experiment: Inhibition of CYP2C19 (unknown origin); format: ADME
[28] = Cytotoxicity against sheep erythrocytes assessed hemolysis; format: cell-based, Ovis aries; settings: erythrocyte
[29] = system: Staphylococcus lugdunensis; experiment: Antimicrobial activity against Staphylococcus lugdunensis; format: functional
[30] = target: Cytochrome P450 1A2 (Homo sapiens, UniProt P05177); experiment: Inhibition of CYP1A2 (unknown origin); format: ADME
[31] = system: Pseudomonas aeruginosa; experiment: Antimicrobial activity against Pseudomonas aeruginosa ARC545; format: functional
[32] = system: Plasma; experiment: Unbound fraction in human plasma; format: ADME, cell-free

Sequence of Cytochrome P450 2C9 (P11712 whole entry): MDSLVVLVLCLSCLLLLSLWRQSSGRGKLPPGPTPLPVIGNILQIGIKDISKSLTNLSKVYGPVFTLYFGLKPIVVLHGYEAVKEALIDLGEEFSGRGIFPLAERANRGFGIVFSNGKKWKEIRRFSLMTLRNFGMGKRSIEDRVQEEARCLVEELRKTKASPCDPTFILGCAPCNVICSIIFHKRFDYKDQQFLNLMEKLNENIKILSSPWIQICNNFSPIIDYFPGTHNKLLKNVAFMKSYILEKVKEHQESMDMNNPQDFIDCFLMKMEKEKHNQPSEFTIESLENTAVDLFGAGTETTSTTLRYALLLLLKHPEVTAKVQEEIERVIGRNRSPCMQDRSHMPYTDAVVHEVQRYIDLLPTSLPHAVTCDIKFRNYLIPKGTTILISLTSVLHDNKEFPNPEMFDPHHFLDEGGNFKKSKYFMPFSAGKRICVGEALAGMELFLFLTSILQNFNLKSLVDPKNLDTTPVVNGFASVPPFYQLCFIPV
Sequence of Cytochrome P450 2C19 (P33261 whole entry): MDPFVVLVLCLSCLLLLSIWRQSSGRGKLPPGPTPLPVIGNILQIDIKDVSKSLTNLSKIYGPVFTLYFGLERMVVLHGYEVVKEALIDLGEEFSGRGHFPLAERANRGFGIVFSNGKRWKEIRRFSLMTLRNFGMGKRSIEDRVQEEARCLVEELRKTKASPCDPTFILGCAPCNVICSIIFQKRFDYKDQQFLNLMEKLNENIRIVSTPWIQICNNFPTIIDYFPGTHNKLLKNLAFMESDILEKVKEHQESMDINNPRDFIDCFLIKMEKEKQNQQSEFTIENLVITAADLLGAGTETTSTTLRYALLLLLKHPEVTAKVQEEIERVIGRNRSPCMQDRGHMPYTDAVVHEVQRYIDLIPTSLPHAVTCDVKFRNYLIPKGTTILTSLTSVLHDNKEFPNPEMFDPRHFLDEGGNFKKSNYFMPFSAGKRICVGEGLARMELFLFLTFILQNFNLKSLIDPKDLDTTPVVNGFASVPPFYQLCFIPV
Sequence of Cytochrome P450 3A4 (P08684 whole entry): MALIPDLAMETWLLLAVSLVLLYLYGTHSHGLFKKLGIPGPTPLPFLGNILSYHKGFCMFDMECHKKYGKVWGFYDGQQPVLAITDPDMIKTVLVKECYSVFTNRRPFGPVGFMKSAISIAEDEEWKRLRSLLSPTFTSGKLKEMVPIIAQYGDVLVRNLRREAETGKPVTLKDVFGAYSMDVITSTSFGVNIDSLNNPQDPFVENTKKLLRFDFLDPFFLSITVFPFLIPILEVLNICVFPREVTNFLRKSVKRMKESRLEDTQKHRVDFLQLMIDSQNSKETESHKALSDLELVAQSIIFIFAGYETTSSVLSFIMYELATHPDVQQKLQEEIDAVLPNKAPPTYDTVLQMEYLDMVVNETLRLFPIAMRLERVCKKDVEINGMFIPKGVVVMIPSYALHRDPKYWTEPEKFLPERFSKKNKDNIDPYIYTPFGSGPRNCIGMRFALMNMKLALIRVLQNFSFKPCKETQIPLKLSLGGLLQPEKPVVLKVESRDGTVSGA
Sequence of Cytochrome P450 2D6 (P10635 whole entry): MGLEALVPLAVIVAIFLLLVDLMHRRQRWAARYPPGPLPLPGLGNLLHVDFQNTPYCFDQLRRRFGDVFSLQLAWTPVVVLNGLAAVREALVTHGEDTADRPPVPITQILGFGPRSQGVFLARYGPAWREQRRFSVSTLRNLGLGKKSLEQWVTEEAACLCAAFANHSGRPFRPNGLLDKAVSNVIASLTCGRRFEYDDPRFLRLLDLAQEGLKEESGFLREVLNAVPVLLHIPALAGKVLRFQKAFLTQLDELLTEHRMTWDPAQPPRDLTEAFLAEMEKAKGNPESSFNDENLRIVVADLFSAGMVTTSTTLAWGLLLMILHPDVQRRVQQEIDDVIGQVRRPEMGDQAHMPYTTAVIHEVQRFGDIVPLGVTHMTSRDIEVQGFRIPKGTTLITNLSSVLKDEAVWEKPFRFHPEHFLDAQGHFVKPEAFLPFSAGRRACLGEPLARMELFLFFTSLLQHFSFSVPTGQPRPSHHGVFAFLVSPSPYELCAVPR
Sequence of Voltage-gated inwardly rectifying potassium channel KCNH2 (Q12809 whole entry): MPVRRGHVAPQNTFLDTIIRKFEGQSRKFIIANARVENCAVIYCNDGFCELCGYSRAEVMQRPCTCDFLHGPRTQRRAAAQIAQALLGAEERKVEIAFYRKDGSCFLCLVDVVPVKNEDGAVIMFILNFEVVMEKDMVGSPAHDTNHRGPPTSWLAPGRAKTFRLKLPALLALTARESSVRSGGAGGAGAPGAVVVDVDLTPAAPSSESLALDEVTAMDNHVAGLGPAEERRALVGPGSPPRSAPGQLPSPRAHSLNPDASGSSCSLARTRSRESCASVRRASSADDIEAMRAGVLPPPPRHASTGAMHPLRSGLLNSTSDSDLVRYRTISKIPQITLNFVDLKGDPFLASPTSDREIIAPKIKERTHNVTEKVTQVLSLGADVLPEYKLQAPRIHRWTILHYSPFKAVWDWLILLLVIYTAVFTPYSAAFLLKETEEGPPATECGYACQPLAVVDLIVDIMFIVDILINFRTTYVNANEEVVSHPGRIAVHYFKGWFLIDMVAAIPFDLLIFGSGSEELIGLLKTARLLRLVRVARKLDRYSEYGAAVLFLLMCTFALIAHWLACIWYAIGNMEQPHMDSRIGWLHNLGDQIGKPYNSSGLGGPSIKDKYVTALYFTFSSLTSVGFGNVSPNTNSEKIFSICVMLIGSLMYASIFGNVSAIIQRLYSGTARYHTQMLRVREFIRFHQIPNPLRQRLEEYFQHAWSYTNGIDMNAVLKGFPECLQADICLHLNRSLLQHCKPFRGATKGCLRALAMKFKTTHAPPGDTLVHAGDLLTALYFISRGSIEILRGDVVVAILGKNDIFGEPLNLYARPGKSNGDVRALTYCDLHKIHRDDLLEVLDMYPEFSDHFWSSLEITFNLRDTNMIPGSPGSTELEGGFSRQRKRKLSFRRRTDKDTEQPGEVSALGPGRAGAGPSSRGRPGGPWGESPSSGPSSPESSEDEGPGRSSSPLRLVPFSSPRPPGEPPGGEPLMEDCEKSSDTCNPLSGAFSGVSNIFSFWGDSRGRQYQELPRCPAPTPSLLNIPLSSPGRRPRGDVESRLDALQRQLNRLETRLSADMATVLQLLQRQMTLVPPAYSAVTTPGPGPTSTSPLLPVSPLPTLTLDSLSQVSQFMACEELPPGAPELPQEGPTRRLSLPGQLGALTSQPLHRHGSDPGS
Sequence of Thymidylate kinase (P23919 whole entry): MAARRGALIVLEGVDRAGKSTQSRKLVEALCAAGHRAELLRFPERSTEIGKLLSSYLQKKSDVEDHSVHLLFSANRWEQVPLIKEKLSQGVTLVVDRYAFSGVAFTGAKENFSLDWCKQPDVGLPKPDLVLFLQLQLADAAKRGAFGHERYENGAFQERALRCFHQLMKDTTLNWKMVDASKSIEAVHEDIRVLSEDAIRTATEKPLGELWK
Sequence of Cytochrome P450 1A2 (P05177 whole entry): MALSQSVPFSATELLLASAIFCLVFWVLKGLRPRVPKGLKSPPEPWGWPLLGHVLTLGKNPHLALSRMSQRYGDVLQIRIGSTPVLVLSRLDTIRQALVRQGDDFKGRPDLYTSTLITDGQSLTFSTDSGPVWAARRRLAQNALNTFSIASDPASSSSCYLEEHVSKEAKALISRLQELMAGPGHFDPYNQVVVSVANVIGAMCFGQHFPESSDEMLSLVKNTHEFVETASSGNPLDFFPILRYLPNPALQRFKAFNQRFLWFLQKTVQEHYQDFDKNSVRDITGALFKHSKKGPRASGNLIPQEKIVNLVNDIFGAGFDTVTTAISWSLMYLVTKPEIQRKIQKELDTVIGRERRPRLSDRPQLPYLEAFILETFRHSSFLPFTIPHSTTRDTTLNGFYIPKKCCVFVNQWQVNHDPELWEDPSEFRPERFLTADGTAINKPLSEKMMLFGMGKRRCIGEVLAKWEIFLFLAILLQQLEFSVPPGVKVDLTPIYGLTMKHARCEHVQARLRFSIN

Cc1cn([C@H]2CCCN(S(=O)(=O)c3cccc(Oc4ccccc4)c3)C2)c(=O)[nH]c1=O
IC50 [1]: 81.5 µM | MIC [2]: > 64 mg/L | MIC [3]: > 64 mg/L | IC50 [4]: 20.9 µM

Cc1cn([C@H]2CCCN(S(=O)(=O)c3cccc(Oc4ccc(Cl)c(Cl)c4)c3)C2)c(=O)[nH]c1=O
logD [5]: > 3.5 | IC50 [1]: 2.78 µM | MIC [6]: 4 mg/L (≈ 7.84 µM) | MIC [2]: 4 mg/L (≈ 7.84 µM) | MIC [3]: 4 mg/L (≈ 7.84 µM) | IC50 [4]: 0.292 µM

Cc1cn([C@H]2CCCN(S(=O)(=O)c3ccc(C(=O)O)c(Oc4ccc(Cl)c(Cl)c4)c3)C2)c(=O)[nH]c1=O
logD [5]: -0.9 | IC50 [1]: 0.023 µM | MIC [6]: > 64 mg/L | MIC [2]: 4 mg/L (≈ 7.21 µM) | MIC [3]: > 64 mg/L | IC50 [4]: < 0.006 µM

Cc1cccc(Oc2cc(S(=O)(=O)N3CCC[C@H](n4cc(C)c(=O)[nH]c4=O)C3)ccc2C(=O)O)c1
logD [5]: -1.6 | MIC [6]: > 64 mg/L | MIC [2]: 16 mg/L (≈ 32 µM) | MIC [3]: > 64 mg/L | IC50 [4]: 0.006 µM

Cc1cn([C@H]2CCCN(S(=O)(=O)c3ccc(C(=O)O)c(Oc4cccc(Cl)c4)c3)C2)c(=O)[nH]c1=O
logD [5]: -1.3 | IC50 [1]: 0.002 µM | MIC [6]: > 64 mg/L | MIC [2]: 2 mg/L (≈ 3.85 µM) | MIC [3]: > 64 mg/L | IC50 [4]: 0.001 µM

Cc1cn([C@H]2CCCN(S(=O)(=O)c3ccc(C(N)=O)c(Oc4cccc(Cl)c4)c3)C2)c(=O)[nH]c1=O
logD [5]: 2 | IC50 [1]: 0.784 µM | MIC [6]: > 64 mg/L | MIC [2]: 2 mg/L (≈ 3.85 µM) | MIC [3]: > 64 mg/L | IC50 [4]: 0.01 µM

Cc1cn([C@H]2CCCN(S(=O)(=O)c3ccc(C#N)c(Oc4cccc(Cl)c4)c3)C2)c(=O)[nH]c1=O
logD [5]: 1 | IC50 [1]: 0.53 µM | MIC [6]: > 64 mg/L | MIC [2]: 2 mg/L (≈ 3.99 µM) | MIC [3]: > 64 mg/L | IC50 [4]: 0.023 µM

COc1ccc(S(=O)(=O)N2CCC[C@H](n3cc(C)c(=O)[nH]c3=O)C2)cc1Oc1cccc(Cl)c1
IC50 [1]: 0.358 µM | MIC [6]: 16 mg/L (≈ 31.6 µM) | MIC [2]: 2 mg/L (≈ 3.95 µM) | MIC [3]: > 64 mg/L | IC50 [4]: 0.006 µM

Cc1cn([C@H]2CCCN(S(=O)(=O)c3ccc(O)c(Oc4ccccc4)c3)C2)c(=O)[nH]c1=O
logD [5]: 1.5 | IC50 [1]: 0.255 µM | MIC [6]: 16 mg/L (≈ 35 µM) | MIC [2]: 0.5 mg/L (≈ 1.09 µM) | MIC [3]: 16 mg/L (≈ 35 µM) | IC50 [4]: 0.014 µM

Cc1cn([C@H]2CCCN(S(=O)(=O)c3ccc(O)c(Oc4cccc(Cl)c4)c3)C2)c(=O)[nH]c1=O
MIC90 [7]: 0.5 mg/L (≈ 1.02 µM) | IC50 [8]: 4.5 µM | logD [5]: 2.1 | IC50 [9]: > 200 µM | MCC [10]: > 64 µg/mL | MIC [11]: 0.5 mg/L (≈ 1.02 µM) | IC50 [12]: > 20 µM | microsomal CLint [13]: 27 µL/min/mg | MIC [14]: > 64 mg/L | MIC [6]: 0.5 mg/L (≈ 1.02 µM) | MIC90 [6]: 0.5 mg/L (≈ 1.02 µM) | IC50 [15]: > 20 µM | hepatocyte CLint [16]: 45 µL/min/1e6 cells | MIC [17]: 2 mg/L (≈ 4.07 µM) | MIC [2]: 0.03 mg/L (≈ 0.061 µM) | MIC90 [2]: 0.06 mg/L (≈ 0.122 µM) | solubility thermodynamic [18]: 193 µM (≈ 94.9 µg/mL) | MIC [3]: 0.25 mg/L (≈ 0.508 µM) | MIC [19]: > 64 mg/L | MIC [20]: > 64 mg/L | MIC [21]: > 64 mg/L | MIC [22]: 0.03 mg/L (≈ 0.061 µM) | MIC [23]: 0.5 mg/L (≈ 1.02 µM) | MIC [24]: 0.13 mg/L (≈ 0.264 µM) | IC50 [25]: > 20 µM | IC50 [26]: 27 µM | IC50 [27]: > 20 µM | MIC [28]: > 64 mg/L | MIC [29]: 0.016 mg/L (≈ 0.0325 µM) | IC50 [30]: > 20 µM | MIC [31]: > 64 mg/L | Fu [32]: 1%

Cc1cn([C@H]2CCCN(S(=O)(=O)c3ccc(O)c(Oc4cccc(F)c4)c3)C2)c(=O)[nH]c1=O
logD [5]: 1.6 | IC50 [1]: 0.057 µM | MIC [6]: 16 mg/L (≈ 33.6 µM) | MIC [2]: 0.25 mg/L (≈ 0.526 µM) | MIC [3]: 16 mg/L (≈ 33.6 µM) | IC50 [4]: 0.004 µM

Cc1cn([C@H]2CCCN(S(=O)(=O)c3ccc(O)c(Oc4ccc(Cl)cc4)c3)C2)c(=O)[nH]c1=O
logD [5]: 2.1 | IC50 [1]: 0.018 µM | MIC [6]: 2 mg/L (≈ 4.07 µM) | MIC [2]: 0.5 mg/L (≈ 1.02 µM) | MIC [3]: 1 mg/L (≈ 2.03 µM) | IC50 [4]: 0.008 µM

Cc1cc(Oc2cc(S(=O)(=O)N3CCC[C@H](n4cc(C)c(=O)[nH]c4=O)C3)ccc2O)ccc1Cl
logD [5]: 2.4 | IC50 [1]: 0.003 µM | MIC [6]: 0.5 mg/L (≈ 0.988 µM) | MIC [2]: 0.25 mg/L (≈ 0.494 µM) | MIC [3]: 1 mg/L (≈ 1.98 µM) | IC50 [4]: 0.018 µM

Cc1cn([C@H]2CCCN(S(=O)(=O)c3ccc(O)c(Oc4cccc(Br)c4)c3)C2)c(=O)[nH]c1=O
logD [5]: 2.3 | IC50 [1]: 0.002 µM | MIC [6]: 0.5 mg/L (≈ 0.932 µM) | MIC [2]: 0.1 mg/L (≈ 0.186 µM) | MIC [3]: 1 mg/L (≈ 1.86 µM) | IC50 [4]: 0.0007 µM

Cc1cn([C@H]2CCCN(S(=O)(=O)c3ccc(O)c(Oc4cc(F)cc(Cl)c4)c3)C2)c(=O)[nH]c1=O
IC50 [1]: 0.012 µM | MIC [6]: 1 mg/L (≈ 1.96 µM) | MIC [2]: 0.05 mg/L (≈ 0.0981 µM) | MIC [3]: 1 mg/L (≈ 1.96 µM) | IC50 [4]: 0.0007 µM

Cc1cn([C@H]2CCCN(S(=O)(=O)c3ccc(O)c(Oc4cccc(C(F)(F)F)c4)c3)C2)c(=O)[nH]c1=O
logD [5]: 2.3 | IC50 [1]: 0.064 µM | MIC [6]: 2 mg/L (≈ 3.81 µM) | MIC [2]: 0.1 mg/L (≈ 0.19 µM) | MIC [3]: 2 mg/L (≈ 3.81 µM) | IC50 [4]: 0.003 µM

Cc1cn([C@H]2CCCN(S(=O)(=O)c3ccc(CO)c(Oc4cccc(Cl)c4)c3)C2)c(=O)[nH]c1=O
IC50 [1]: 0.61 µM | MIC [6]: 64 mg/L (≈ 126 µM) | MIC [2]: 2 mg/L (≈ 3.95 µM) | MIC [3]: 32 mg/L (≈ 63.2 µM) | IC50 [4]: 0.028 µM

C[C@H]1COc2c(N3CCN(C)CC3)c(F)cc3c(=O)c(C(=O)O)cn1c23.C[C@H]1COc2c(N3CCN(C)CC3)c(F)cc3c(=O)c(C(=O)O)cn1c23.O [LEVOFLOXACIN]
MIC [7]: 0.25 mg/L | MIC90 [6]: 16 mg/L
